Assays:
AVEFA = assay: Herbicidal pre-emergence action, section C (Table C4); assay type: in vivo, Avena fatua; settings: application rate 320 g/ha; visual grading after ca. 3 weeks
Excerpt: (§4) Seeds of mono- and dicotyledonous weed plants and crop plants were sown, in plastic or organic planting pots, in sandy loam and covered with soil. The compounds according to the invention, formulated in the form of wettable powders (WP) or as emulsifiable concentrates (EC), were applied to the surface of the covering soil as aqueous suspension or emulsion, with the addition of 0.5% of an additive, at an application rate of 600 1 of water/ha (converted). Following treatment, the pots were placed in a greenhouse and kept under optimum growth conditions for the test plants.

SETVI [1] = assay: Herbicidal pre-emergence action, section C (Table C10); assay type: in vivo, Setaria viridis; settings: application rate 80 g/ha; visual grading after ca. 3 weeks
TRZAS = assay: Post-emergence effects on crop plants (Table F2); assay type: in vivo, Triticum aestivum; settings: application rate 80 g/ha, crop plant TRZAS
Excerpt: (§1) 2 to 3 weeks after sowing, the test plants were sprayed in the single-leaf stage.

POLCO = assay: Herbicidal pre-emergence action, section C (Table C9); assay type: in vivo, Polygonum convolvulus; settings: visual grading after ca. 3 weeks
VIOTR [2] = assay: Herbicidal pre-emergence action, section C (Table C12); assay type: in vivo, Viola tricolor; settings: application rate 80 g/ha; visual grading after ca. 3 weeks
ALOMY [3] = assay: Herbicidal post-emergence action, section E (Table E2); assay type: in vivo, Alopecurus myosuroides; settings: assessed visually after ca. 3 weeks
Excerpt: as §1

MATIN [4] = assay: Herbicidal pre-emergence action, section C (Table C8); assay type: in vivo, Matricaria inodora; settings: application rate 320 g/ha; visual grading after ca. 3 weeks
VERPE [5] = assay: Herbicidal pre-emergence action, section C (Table C11); assay type: in vivo, Veronica persica; settings: application rate 320 g/ha; visual grading after ca. 3 weeks
ECHCG [6] = assay: Herbicidal post-emergence action, section E (Table E5); assay type: in vivo, Echinochloa crus-galli; settings: assessed visually after ca. 3 weeks
Excerpt: as §1

ECHCG [7] = assay: Herbicidal pre-emergence action, section C (Table C6); assay type: in vivo, Echinochloa crus-galli; settings: application rate 80 g/ha; visual grading after ca. 3 weeks
GLXMA [8] = assay: Post-emergence effects on crop plants (Table F4); assay type: in vivo, Glycine max; settings: application rate 80 g/ha, crop plant GLXMA
Excerpt: as §1

LOLRI [9] = assay: Herbicidal pre-emergence action, section C (Table C7); assay type: in vivo, Lolium rigidum; settings: application rate 320 g/ha; visual grading after ca. 3 weeks
Excerpt: as §4

ALOMY [10] = assay: Herbicidal pre-emergence action, section C (Table C2); assay type: in vivo, Alopecurus myosuroides; settings: application rate 80 g/ha; visual grading after ca. 3 weeks
DIGSA [11] = assay: Herbicidal pre-emergence action, section C (Table C5); assay type: in vivo, Digitaria sanguinalis; settings: application rate 80 g/ha; visual grading after ca. 3 weeks
AMARE [12] = assay: Herbicidal pre-emergence action, section C (Table C3); assay type: in vivo, Amaranthus retroflexus; settings: application rate 320 g/ha; visual grading after ca. 3 weeks
ORYZA = assay: Post-emergence effects on crop plants (Table F3); assay type: in vivo, Oryza sativa; settings: application rate 80 g/ha, crop plant ORYZA
Excerpt: as §1

BRSNW = assay: Post-emergence effects on crop plants (Table F5); assay type: in vivo, Brassica napus; settings: application rate 320 g/ha, crop plant BRSNW
Excerpt: as §1

VERPE [13] = assay: Herbicidal post-emergence action, section E (Table E9); assay type: in vivo, Veronica persica; settings: application rate 320 g/ha; assessed visually after ca. 3 weeks
Excerpt: as §1

DIGSA [14] = assay: Herbicidal post-emergence action, section E (Table E4); assay type: in vivo, Digitaria sanguinalis; settings: application rate 320 g/ha; assessed visually after ca. 3 weeks
Excerpt: as §1

ZEAMX = assay: Post-emergence effects on crop plants (Table F1); assay type: in vivo, Zea mays; settings: crop plant ZEAMX
Excerpt: as §1

ABUTH [15] = assay: Herbicidal post-emergence action, section E (Table E1); assay type: in vivo, Abutilon theophrasti; settings: application rate 320 g/ha; assessed visually after ca. 3 weeks
Excerpt: as §1

ABUTH [16] = assay: Herbicidal pre-emergence action (Table A1); assay type: in vivo, Abutilon theophrasti; settings: application rate 320 g/ha; visual grading after ca. 3 weeks vs untreated controls (100% = plants have died off, 0% = as control plants)
How it was run: (§2)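 Pots: sandy loam. Sowing: one mono- and one dicot weed species together per pot. Seeds covered with soil.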

POAAN [17] = assay: Herbicidal post-emergence action (Table B7); assay type: in vivo, Poa annua; settings: application rate 320 g/ha
How it was run: (§3)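 Greenhouse pot assay, sandy loam soil, one weed species per pot. Application at one-leaf stage. Readout ~3 wk post-treatment: visual % activity, 100 = dead, 0 = as untreated.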

SETVI [18] = assay: Herbicidal post-emergence action (Table B8); assay type: in vivo, Setaria viridis; settings: application rate 320 g/ha
How it was run: as §3

DIGSA [19] = assay: Herbicidal post-emergence action (Table B12); assay type: in vivo, Digitaria sanguinalis; settings: application rate 320 g/ha
How it was run: as §3

LOLRI [20] = assay: Herbicidal pre-emergence action (Table A3); assay type: in vivo, Lolium rigidum; settings: application rate 320 g/ha; visual grading after ca. 3 weeks
How it was run: as §2

MATIN [21] = assay: Herbicidal post-emergence action (Table B6); assay type: in vivo, Matricaria inodora; settings: application rate 320 g/ha; rated visually after about 3 weeks
How it was run: as §3

STEME = assay: Herbicidal pre-emergence action (Table A6); assay type: in vivo, Stellaria media; settings: application rate 320 g/ha; visual grading after ca. 3 weeks
How it was run: as §2

ABUTH [22] = assay: Herbicidal post-emergence action (Table B1); assay type: in vivo, Abutilon theophrasti; settings: application rate 320 g/ha; treated at one-leaf stage; rated visually after about 3 weeks vs untreated controls (100% = plants have died, 0% = like control plants)
How it was run: as §3

DIGSA [23] = assay: Herbicidal pre-emergence action (Table A12); assay type: in vivo, Digitaria sanguinalis; settings: application rate 320 g/ha; visual grading after ca. 3 weeks
How it was run: as §2

ECHCG [24] = assay: Herbicidal post-emergence action (Table B3); assay type: in vivo, Echinochloa crus-galli; settings: application rate 320 g/ha; rated visually after about 3 weeks
How it was run: as §3

KCHSC = assay: Herbicidal pre-emergence action (Table A10); assay type: in vivo, Kochia scoparia; settings: application rate 1280 g/ha; visual grading after ca. 3 weeks
How it was run: as §2

ECHCG [25] = assay: Herbicidal pre-emergence action (Table A2); assay type: in vivo, Echinochloa crus-galli; settings: application rate 320 g/ha; visual grading after ca. 3 weeks
How it was run: as §2

LOLRI [26] = assay: Herbicidal post-emergence action, section E (Table E6); assay type: in vivo, Lolium rigidum; settings: application rate 320 g/ha; assessed visually after ca. 3 weeks
Excerpt: as §1

SETVI [27] = assay: Herbicidal post-emergence action, section E (Table E8); assay type: in vivo, Setaria viridis; settings: application rate 320 g/ha; assessed visually after ca. 3 weeks
Excerpt: as §1

LOLRI [28] = assay: Herbicidal post-emergence action (Table B5); assay type: in vivo, Lolium rigidum; settings: application rate 320 g/ha; rated visually after about 3 weeks
How it was run: as §3

POAAN [29] = assay: Herbicidal pre-emergence action (Table A7); assay type: in vivo, Poa annua; settings: application rate 320 g/ha; visual grading after ca. 3 weeks
How it was run: as §2

ALOMY [30] = assay: Herbicidal post-emergence action (Table B2); assay type: in vivo, Alopecurus myosuroides; settings: application rate 320 g/ha; rated visually after about 3 weeks
How it was run: as §3

GLXMA [31] = assay: Pre-emergence effects on crop plants (Table D4); assay type: in vivo, Glycine max; settings: crop plant; application rate 80 g/ha; visual grading after ca. 3 weeks
VIOTR [32] = assay: Herbicidal post-emergence action, section E (Table E10); assay type: in vivo, Viola tricolor; settings: application rate 320 g/ha; assessed visually after ca. 3 weeks
Excerpt: as §1

ALOMY [33] = assay: Herbicidal pre-emergence action (Table A9); assay type: in vivo, Alopecurus myosuroides; settings: application rate 320 g/ha; visual grading after ca. 3 weeks
How it was run: as §2

VERPE [34] = assay: Herbicidal post-emergence action (Table B10); assay type: in vivo, Veronica persica; settings: application rate 320 g/ha
How it was run: as §3

MATIN [35] = assay: Herbicidal pre-emergence action (Table A4); assay type: in vivo, Matricaria inodora; settings: application rate 320 g/ha; visual grading after ca. 3 weeks
How it was run: as §2

ABUTH [36] = assay: Herbicidal pre-emergence action, section C (Table C1); assay type: in vivo, Abutilon theophrasti; settings: application rate 80 g/ha; visual grading after ca. 3 weeks
VERPE [37] = assay: Herbicidal pre-emergence action (Table A11); assay type: in vivo, Veronica persica; settings: application rate 320 g/ha; visual grading after ca. 3 weeks
How it was run: as §2

AMARE [38] = assay: Herbicidal pre-emergence action (Table A8); assay type: in vivo, Amaranthus retroflexus; settings: application rate 1280 g/ha; visual grading after ca. 3 weeks vs untreated controls (100% = plants have died off, 0% = as control plants)
How it was run: as §2

SETVI [39] = assay: Herbicidal pre-emergence action (Table A5); assay type: in vivo, Setaria viridis; settings: application rate 320 g/ha; visual grading after ca. 3 weeks
How it was run: as §2

Structure (SMILES): O=C1N(Cc2c(F)cccc2F)CCCC12CCCN(Cc1c(F)cccc1F)C2=O (single isomer, unassigned; (-)) [I-009, (-)-2,8-bis[(2,6-difluorophenyl)methyl]-2,8-diazaspiro[5.5]undecane-1,7-dione]
- pre-emergence activity against AVEFA (AVEFA): 90%
- pre-emergence activity against SETVI (SETVI [1]): 100%
- post-emergence activity against TRZAS (TRZAS): 10%
- pre-emergence activity against POLCO (POLCO; application rate 80 g/ha): 80%
- pre-emergence activity against VIOTR (VIOTR [2]): 80%
- post-emergence activity against ALOMY (ALOMY [3]; application rate 80 g/ha): 80%
- pre-emergence activity against MATIN (MATIN [4]): 90%
- pre-emergence activity against VERPE (VERPE [5]): 90%
- post-emergence activity against ECHCG (ECHCG [6]; application rate 320 g/ha): 90%
- pre-emergence activity against ECHCG (ECHCG [7]): 100%
- post-emergence activity against GLXMA (GLXMA [8]): 20%
- pre-emergence activity against LOLRI (LOLRI [9]): 100%
- pre-emergence activity against ALOMY (ALOMY [10]): 100%
- pre-emergence activity against DIGSA (DIGSA [11]): 100%
- pre-emergence activity against AMARE (AMARE [12]): 90%
- post-emergence activity against ORYZA (ORYZA): 10%
- post-emergence activity against BRSNW (BRSNW): 20%
- post-emergence activity against VERPE (VERPE [13]): 80%
- post-emergence activity against DIGSA (DIGSA [14]): 90%
- post-emergence activity against ZEAMX (ZEAMX; application rate 320 g/ha): 20%

Structure (SMILES): O=C1N(Cc2ccccc2F)CCCC12CCCN(Cc1ccccc1F)C2=O (single isomer, unassigned) [I-001]
- pre-emergence activity against SETVI (SETVI [1]): 100%
- post-emergence activity against TRZAS (TRZAS): 0%
- post-emergence activity against ABUTH (ABUTH [15]): 80%
- pre-emergence activity against ABUTH (ABUTH [16]): 90%
- post-emergence activity against POAAN (POAAN [17]): 90%
- post-emergence activity against SETVI (SETVI [18]): 90%
- pre-emergence activity against POLCO (POLCO; application rate 320 g/ha): 80%
- pre-emergence activity against VIOTR (VIOTR [2]): 90%
- post-emergence activity against ALOMY (ALOMY [3]; application rate 320 g/ha): 90%
- post-emergence activity against DIGSA (DIGSA [19]): 90%
- pre-emergence activity against LOLRI (LOLRI [20]): 100%
- post-emergence activity against MATIN (MATIN [21]): 90%
- pre-emergence activity against STEME (STEME): 90%
- pre-emergence activity against MATIN (MATIN [4]): 100%
- pre-emergence activity against VERPE (VERPE [5]): 90%
- post-emergence activity against ECHCG (ECHCG [6]; application rate 80 g/ha): 90%
- pre-emergence activity against ECHCG (ECHCG [7]): 100%
- post-emergence activity against ABUTH (ABUTH [22]): 90%
- pre-emergence activity against DIGSA (DIGSA [23]): 100%
- post-emergence activity against ECHCG (ECHCG [24]): 100%
- pre-emergence activity against LOLRI (LOLRI [9]): 100%
- pre-emergence activity against KCHSC (KCHSC): 90%
- pre-emergence activity against ECHCG (ECHCG [25]): 100%
- pre-emergence activity against ALOMY (ALOMY [10]): 100%
- post-emergence activity against LOLRI (LOLRI [26]): 90%
- post-emergence activity against SETVI (SETVI [27]): 100%
- post-emergence activity against LOLRI (LOLRI [28]): 90%
- pre-emergence activity against DIGSA (DIGSA [11]): 100%
- pre-emergence activity against POAAN (POAAN [29]): 100%
- post-emergence activity against ORYZA (ORYZA): 0%
- post-emergence activity against ALOMY (ALOMY [30]): 90%
- pre-emergence activity against GLXMA (GLXMA [31]): 0%
- post-emergence activity against VIOTR (VIOTR [32]): 80%
- pre-emergence activity against ALOMY (ALOMY [33]): 90%
- post-emergence activity against VERPE (VERPE [13]): 90%
- post-emergence activity against VERPE (VERPE [34]): 90%
- pre-emergence activity against MATIN (MATIN [35]): 90%
- pre-emergence activity against ABUTH (ABUTH [36]): 80%
- pre-emergence activity against VERPE (VERPE [37]): 90%
- post-emergence activity against DIGSA (DIGSA [14]): 80%
- post-emergence activity against ZEAMX (ZEAMX; application rate 80 g/ha): 0%
- pre-emergence activity against AMARE (AMARE [38]): 90%
- pre-emergence activity against SETVI (SETVI [39]): 100%
